The results in this text go back to patent US20250223610A1, “MEASUREMENT OF SOMATIC L1 RETROTRANSPOSITION ACTIVITY” (SZEGEDI BIOLÓGIAI KUTATÓKÖZPONT, priority 2022, published 2025).

“Also recorded” adds a separate entry of the source.

The subject of data set [1] is somatic L1 retrotransposition. Nature of the data set: Stereomicroscopic macrovisualization of EGFP positive hepatocyte colonies in liver of Fah-/- mice carrying the ORFeus reporter. The data set is classed as in vivo. The conditions noted are these: 5 mg/kg IP twice weekly from NTBC withdrawal; livers examined after 3 months. The source says:
In these proof of concept studies the present inventors have used an L1-ORF2-free ORFeus and amiR-free construct variant (shown in FIG. 3B). First, the ORFeus-expressing transposon and the hyperPB transposase helper plasmid were co-delivered hydrodynamically into the liver of Fah^−/− mice, then the curative drug nitisinone (NTBC) was withdrawn (FIG. 2A). In those hepatocytes where hydrodynamic transfection is successful, the hyperactive transposase helper enzyme is likely to catalyse the “cut and paste” transposition reaction presumably leading to an integration into the host chromosomes (Skipper, Andersen et al. 2013).
FICZ was administered by intraperitoneal (IP) injection at a dose of 5 mg/kg body weight twice weekly. […]
The results of EGFP macrovisualization were summarized in FIG. 5 for the control, FICZ-treated and MeIQx-treated experimental groups. The number of EGFP-positive hepatocyte cell colonies detectable by stereomicroscopy in the liver of each animal was counted and per-animal values were plotted on a box diagram. […]
Pictures of whole mouse livers were taken with an Olympus SZX12 fluorescence stereozoom microscope equipped with a 100 W mercury lamp and filter sets for selective excitation and emission of GFP and mCherry.

The subject of data set [2] is somatic L1 retrotransposition. The data set can be described thus: SYBR Green-based intronless EGFP qPCR on liver DNA of ORFeus reporter bearing Fah-/- mice. The data set is classed as in vivo. The following applies: 1 mg/kg IP twice weekly from NTBC withdrawal; liver samples after three months; preliminary results. The source says: Multiple qPCR-based methods have already been published offering the possibility to measure the amount of intron-free EGFP copies produced during retrotransposition of the ORFeus reporter (Mita, Sun et al. 2020). Based on these published methods, we have also started to quantify our results.
NTBC was withdrawn after hydrodynamic plasmid delivery.
To measure the retrotransposition events of the synthetic L1 element we carried out genomic exon-exon junction qPCR analysis of the spliced, intronless EGFP using two different qPCR detection chemistry. SYBR Green based qPCR was done using PerfeCTa SYBR Green SuperMix (Quantabio). Cycling conditions were as follows: 95° C. for 7 min, 4 cycles of 10 s at 95° C., 15 s at 66° C. (−1° C./cycle, no acquisition), followed by 40 cycles of 5 s at 95° C., 10 s at 62° C. The following primers were used: […]
Probe-based qPCR detection was done as previously described (Mita, Sun et al. 2020) using PerfeCTa qPCR ToughMix (Quantabio). All qPCR reactions were performed on a Rotor-Gene Q instrument (Qiagen) in triplicates using 87 ng of gDNA. Analysis was carried out with the Rotor-Gene Q software (Qiagen). Relative changes in expression levels were calculated using the ΔCT method (Livak and Schmittgen 2001) SYBR Green and probe-based qPCR results were normalized to measurements of the Olfr16 and Rpl21 internal control genes, respectively.
On the technique in general: Real-time PCR tracks product formation cycle by cycle.

In data set [3] the test system is somatic L1 retrotransposition. Nature of the data set: FACS measurement of EGFP-positive hepatocytes isolated from ORFeus carrying Fah-/- mice. The following applies: 1 million hepatocytes per sample; Decitabine 1 mg/kg IP twice weekly.
Procedure: For evaluating alternative detection methods we investigated the outcome of Decitabine (5-aza-2′-deoxycytidine) treatments in the assay of the invention. 10 Fah^−/− animals were injected hydrodynamically and after NTBC withdrawal, 5 were started on Decitabine and 5 animals were kept without drug treatment as a control group. Under our current drug treatment regime administration of drugs starts at the same time as NTBC withdrawal.
To test this approach, 2-2 animals from Decitabine-treated and control experimental groups were subjected to liver perfusion and hepatocyte isolation.
Mice were housed under 12 h light-dark cycle at 22° C. with free access to water and regular rodent chow. […] Fah^−/− mice were treated with 8 mg/l Orfadin® (Nitisinone, NTBC) (Swedish Orphan Biovitrum) in drinking water. NTBC was withdrawn after hydrodynamic plasmid delivery. […] Dosing, scheduling, and the route of administration of all drugs and chemical compounds were determined according to the manufacturer's instructions and literature data. […] The body weight of the mice was monitored continuously. […]
Procurement of liver for hepatocyte isolation was done under sodium pentobarbital (Nembutal) (Sigma Aldrich) anaesthesia. […] Cell numbers were determined using a Burker chamber. Cell viability was determined by trypan blue exclusion test. […]
The test system of a further data set is Tp53 gene. Nature of the data set: Tp53 silencing by amiR element. The arrangement: species or system mouse. The source says:
For example, silencing of the Tp53 gene can attenuate the P53 L1 sensor (Ardeljan, Steranka et al. 2020) (FIG. 1B), without completely inactivating it. Such an effect is predicted to increase the tolerance of somatic cells to ORFeus reporter expression. We have developed three efficient Tp53 silencing amiR elements. Of these, amiR-mP53/1 capable to produce approximately 20% remaining Tp53 gene expression is currently being tested in our laboratory. Presumably, it will be able to increase the sensitivity of the somatic L1 activity measuring system. However, its application is not essential. Our results so far, at least in our in vivo system, are in conflict with the finding of the authors describing the role of the P53 sensor stating that wild-type retinal pigment epithelium-1 (RPE) cells undergo a TP53-dependent growth arrest in response to L1 (Ardeljan, Steranka et al. 2020). In contrast, ORFeus expressing mouse liver cells are able to regenerate the liver in the absence of p53 silencing (FIG. 3B).

With `Cc1cnc2ccc3c(nc(N)n3C)c2n1` [MeIQx, 2-Amino-3,8-Dimethylimidazo[4,5.f]Quinoxaline], in data set [1], the “number of EGFP fluorescent (ORFeus retrotransposition bearing) hepatocyte colonies in liver as compared to non-drug-treated controls” value was “higher number”.

Take `Nc1ncn([C@H]2C[C@H](O)[C@@H](CO)O2)c(=O)n1` [Decitabine, 5-aza-2′-deoxycytidine]: the “induction of somatic L1 retrotransposition (amount of intron-free EGFP copies, normalized to Olfr16)” value in data set [2] is “weak inducer”. Moreover, the “number of EGFP-expressing cells by FACS compared to controls” value in data set [3] is reported as “higher number; also recorded: confirmed the results obtained with qPCR”.

On to `O=Cc1c2c(cc3c1=Nc1ccccc1-3)=Nc1ccccc1-2` [FICZ, 6-Formylindolo[3,2-b]carbazole], for which the “number of EGFP fluorescent (ORFeus retrotransposition bearing) hepatocyte colonies in liver as compared to non-drug-treated controls” value in data set [1] is reported as “more EGFP fluorescent colonies; also recorded: higher number”.

B1: amiR-mP53/1: Tp53 silencing artificial microRNA (amiR) element, SEQ ID NO: 19 (nucleic acid)
DNA: GGGCCCGTGTACCGGTGTGTGAGCTCTGTTTGAATGAGGCTTCAGTACTTTACAGAATCGTTGCCTGCACATCTTGGAAACACTTGCTGGGATTACTTCTTCAGGTTAACCCAACAGAAGGCTCGAGAAGGTATATTGCTGTTGACAGTGAGCGATCACTGCATGGACGATCTGTTTAGTGAAGCCACAGATGTAAACAGATCGTCCATGCAGTGAGTGCCTACTGCCTCGGACTTCAAGGGGCTACTTTAGGAGCAATTATCTTGTTTACTAAAACTGAATACCTTGCTATCTCTTTGATACATTTTTACAAAGCTGAATTAAAATGGTATAAATTAAATCACTTTGTCGACGTGTTCTAGAGTGTGCCGGC
modifications: misc_feature 27..121 Endogenous miR30a 5' flanking; misc_feature 155..176 Target with N1 A mismatch; stem_loop 177..195 loop; misc_feature 196..217 guide; misc_feature 238..347 Endogenous miR30a 3' flanking; amiR-mP53/1 element
On to B1, for which the “remaining Tp53 gene expression” value with Tp53 gene is given as “approximately 20%”.
